Data from PubChem BioAssay (NCI).
Where “and” joins values, the source holds several entries; their conditions need not be identical. Equal values may be shown once.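 Results reflect a 48-hour exposure of cells in 96-well plates to compound at five concentrations. The concentration for 50% growth inhibition is given as GI50. TGI denotes the concentration required for complete inhibition of growth.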

Experiments:
Test in all cases: NCI-60 cell line screen, 48 h
[1] = tested on: SK-MEL-28 melanoma
[2] = tested on: OVCAR-3 ovarian
[3] = tested on: K-562 leukemia
[4] = tested on: MOLT-4 leukemia
[5] = tested on: NCI/ADR-RES ovarian
[6] = tested on: UO-31 renal
[7] = tested on: CAKI-1 renal
[8] = tested on: MDA-MB-231 breast

Compound	GI50 [1]	TGI [1]	GI50 [2]	TGI [2]	GI50 [3] [µM]	GI50 [4] [µM]	TGI [4] [µM]	GI50 [5] [µM]	TGI [5] [µM]	GI50 [6] [µM]	TGI [6]	GI50 [7] [µM]	TGI [7] [µM]	GI50 [8]	TGI [8] [µM]	TGI [3] [µM]
Cc1cc(Br)c2nsnc2c1[N+](=O)[O-]	3.34 µM	7.67 µM	1.69 µM	3.08 µM	0.968	1.64	4.93	4.54	20.7	2.05	8.23 µM	1.6	3.26	5.01 µM	15.6	
C=C1C(=O)O[C@H]2[C@H]1CC/C(COC(=O)c1cccc3ccccc13)=C\CC[C@@]1(C)O[C@@H]21	1.82 µM	3.64 µM	1.39 µM	2.76 µM	1.98	2.95	12.8	2.19	6.45	1.44	2.76 µM			1.69 µM	3.68	14.7
O=[N+]([O-])c1ccc(N/N=C/c2ccccc2O)nc1	4.38 µM	> 100 µM	0.368 µM	> 100 µM				0.373	> 100	0.623	> 100 µM	0.738	8.37	1.46 µM	> 100	
O=C(O)c1ccccc1-c1ccccc1C(=O)Nc1ccc2c(c1)Cc1ccccc1-2		> 100 µM		69.9 µM					> 100		> 100 µM		> 100		> 100	
CCOC(=O)C1=C(C)NC(C)=C(C(=O)OCC)C1c1cc(Br)c(O)c(OC)c1	4.32 µM	16.7 µM	2.34 µM	5.15 µM		3.61	52.4	2.71	9.4	4.55	25.2 µM	4.79	30.8	6.15 µM	20.4	
CCOC(=O)c1c(C(F)(F)F)n([O-])c2ccc(Cl)cc2[n+]1=O	1.89 µM	3.58 µM	2.11 µM	3.93 µM	2.2	2.32	5.18	2.8	6	1.48	2.93 µM	1.35	2.87	2.01 µM	4.45	4.37
CC[C@@]1(O)C(=O)OCc2c1cc1n(c2=O)Cc2cc3c(Cl)c4c(cc3nc2-1)OCO4	0.442 µM and 1.18 µM	> 100 µM	0.653 µM and 1.77 µM	> 100 µM	< 0.001	< 0.001		< 0.001		< 0.001		< 0.001	> 100	0.00975 µM and 0.0722 µM	> 100	> 100
Cc1cc2oc(=O)c(Cl)c(Cl)c2c(C)c1Cl		28.9 µM		7.1 µM			5.21		38.4		25.3 µM		15.7		28.7	4.39
Cc1ccc2nc3sc(=O)sc3nc2c1		48.9 µM		27.7 µM			50.1		30.9		28.9 µM		30		32.1	75.6
Cc1cn(C2CC(N=[N+]=[N-])C(CO)O2)c(=O)[nH]c1=O (stereo not drawn)			> 1000 µM	> 1000 µM		> 1000	> 1000	296	> 1000	> 1000	> 1000 µM	479	> 1000	> 1000 µM	> 1000	> 1000
COc1ccc(C2c3cc4c(c(OC)c3CC3OCC(=O)C32)OCO4)cc1OC (stereo not drawn)		> 100 µM						< 0.01	28.4	< 0.01	48.4 µM	< 0.01	11.3	< 0.01 µM	0.123	
COc1ccc(/C=C/c2ccnc3ccccc23)cc1		29.4 µM		26.3 µM			34		33.6		0.0937 µM		31.6			23.2
O=C1/C(=C\c2ccc([N+](=O)[O-])cc2)CS(=O)(=O)C/C1=C/c1ccc([N+](=O)[O-])cc1	0.188 µM	0.444 µM and 3.59 µM	0.0761 µM	0.329 µM and 0.754 µM				0.315	3.15	0.605	0.366 µM and 1.85 µM	0.121		0.36 µM	0.533	> 100
NC(Cn1ccc(=O)c(O)c1)C(=O)O (stereo not drawn)		> 100 µM		> 100 µM			> 100		> 100		> 100 µM		> 100		> 100	
CC1(C)C(=O)CCC(=O)C(C)(C)C2=CC=C(O2)C(C)(C)C(=O)CCC(=O)C(C)(C)C2=CC=C1O2		> 100 µM		> 100 µM			> 100						> 100			> 100
O=c1c(-c2ccc3c(c2)OCO3)coc2c(CO)c(O)ccc12	5.91 µM	22.7 µM	2.07 µM	4.26 µM	2.87	30.2	> 100	3.72	21.4	2.89	12 µM			2.01 µM	5.09	> 100
O=S(=O)(CC(O)C(Cl)(Cl)Cl)NNc1ccccc1 (stereo not drawn)		> 100 µM		> 100 µM			> 100		> 100				> 100		> 100	> 100
CC(=O)NC1CCCN(O)C(=O)/C=C(/C)CCOC(=O)C(NC(C)=O)CCCN(O)C(=O)/C=C(/C)CCOC(=O)C(NC(C)=O)CCCN(O)C(=O)/C=C(/C)CCOC1=O.[Fe] (stereo not drawn)	> 100 µM	> 100 µM	> 100 µM	> 100 µM		> 100	> 100	> 100	> 100	> 100	> 100 µM	> 100	> 100	> 100 µM	> 100	
CCCCCCCCn1ccc2cc(NC(=O)Cn3cc(CN4CCC(C)CC4)nn3)ccc21			1.71 µM	3.19 µM	1.61	2.02	5.55	1.92	3.99	1.44	2.74 µM	1.67	3.15	1.71 µM	3.24	3.51
